Source: patent US20170143701A1, “CARBOHYDRATE METABOLISM-AMELIORATING AGENT” (SUNTORY HOLDINGS LIMITED, priority 2014, published 2017)

Experiments:
[1] = test system: C57/BL6J mice; assay: In vivo plasma GLP-1 level-increasing action: plasma active GLP-1 level (ELISA) after oral administration; conditions: 10 mg/kg oral; for Significant difference (p < 0.05) vs control group, plasma active GLP-1 level: 30 minutes, Student's t-test; for Plasma active GLP-1 level (relative value to control group as 100), average value: blood 30 minutes after, 0.5% CMC-Na group = 100
Procedure, shortened: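 Male C57BL/6J mice, habituated 1 week, deprived of food 5.5 h and water 2 h, then dosed orally with compound at 10 mg/kg in 0.5% CMC-Na. Vena cava blood taken 30 min later under anaesthesia, with heparin and sitagliptin added; plasma active GLP-1 by ELISA, relative to vehicle group set at 100.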

[2] = test system: NCI-H716 cells; assay: In vitro GLP-1 secretion-accelerating action: amount of active GLP-1 secreted (ELISA); assay type: cell-based; conditions: 1 hour; for Significant difference (p < 0.05) vs control group, amount of active GLP-1 secreted: 10 mM, Student's t-test; for Amount of active GLP-1 secreted (relative value to control group as 100), average value: cyclic dipeptide 10 mM with 10 μM Sitagliptin phosphate, group with no cyclic dipeptide = 100
Protocol: Among the cyclic dipeptides, 92 highly water-soluble cyclic dipeptides were used in the following experiment. In each well of a Poly-L-Lysine 96-well plate, NCI-H716 cells suspended in 100 μL of a DMEM (with 10% FBS, 2 mM glutamine, and 1% antibiotics added in advance) were seeded at 0.5×10^5 cells/well, and cultured in a CO2 incubator (manufactured by ESPEC CORP.) for 48 hours. After washing with PBS(+), 100 μL of a PBS(+) solution with each cyclic dipeptide at a final concentration of 10 mM and 10 μM of Sitagliptin phosphate added therein was added to the cells. After 1 hour, the resultant solution was recovered, and the amount of active GLP-1 in the solution was measured by using the ELISA kit. In the analysis, the amount of active GLP-1 for a group with no cyclic dipeptide added was defined as 100, and relative values thereto were used.

SMILES	Significant difference (p < 0.05) vs control group, plasma active GLP-1 level ([1]; Table 7, Experiment 2)	Plasma active GLP-1 level (relative value to control group as 100), average value ([1]; Table 7, Experiment 2)	Significant difference (p < 0.05) vs control group, amount of active GLP-1 secreted ([2]; Table 4, Experiment 4)	Amount of active GLP-1 secreted (relative value to control group as 100), average value ([2]; Table 4, Experiment 4)	Significant difference (p < 0.05) vs control group, plasma active GLP-1 level ([1]; Table 6, Experiment 1)	Plasma active GLP-1 level (relative value to control group as 100), average value ([1]; Table 6, Experiment 1)	further results
C[C@@H]1NC(=O)[C@@H]2CCCN2C1=O [compound 187, cyclo-L-alanyl-proline]	Yes	217	Yes	1186			
O=C1NC(Cc2c[nH]c3ccccc23)C(=O)NC1Cc1cnc[nH]1 (stereo not drawn) [compound 60, Cyclo(Trp-His)]					No	129	Significant difference (p < 0.05) vs control group, amount of active GLP-1 secreted ([2]; Table 2, Experiment 2): Yes; Amount of active GLP-1 secreted (relative value to control group as 100), average value ([2]; Table 2, Experiment 2): 260
CC[C@H](C)[C@@H]1NC(=O)[C@H](CCC(N)=O)NC1=O [compound 182, cyclo-glutaminyl-isoleucine]	Yes	188	Yes	445			
C[C@@H]1NC(=O)[C@H](Cc2cnc[nH]2)NC1=O [compound 34, Cyclo(Ala-His)]					No	100	Significant difference (p < 0.05) vs control group, amount of active GLP-1 secreted ([2]; Table 1, Experiment 1): No; Amount of active GLP-1 secreted (relative value to control group as 100), average value ([2]; Table 1, Experiment 1): 211
NC(=O)CC[C@@H]1NC(=O)[C@H](Cc2cnc[nH]2)NC1=O [compound 191, cyclo-glutaminyl-histidine]	Yes	247	Yes	743			
NC(=O)CC1NC(=O)CNC1=O (stereo not drawn) [compound 215, cyclo-asparaginyl-glycine]	Yes	305	Yes	611			
O=C(O)C[C@@H]1NC(=O)[C@H](CO)NC1=O [compound 193, cyclo-aspartyl-serine]	Yes	266	Yes	509			
CSCC[C@@H]1NC(=O)[C@H](CCCNC(=N)N)NC1=O [compound 199, cyclo-methionyl-arginine]	Yes	217	Yes	652			
NC(N)=NCCC[C@@H]1NC(=O)[C@@H]2CCCN2C1=O [compound 209, cyclo-arginyl-proline]	Yes	315	Yes	441			
NC(N)=NCCCC1NC(=O)C(CC(=O)O)NC1=O (stereo not drawn) [compound 207, cyclo-arginyl-aspartic acid]	Yes	266	Yes	1255			
CC(C)C[C@@H]1NC(=O)[C@H](CCCN=C(N)N)NC1=O [compound 43, cyclo-arginyl-leucine]					Yes	138	Significant difference (p < 0.05) vs control group, amount of active GLP-1 secreted ([2]; Table 1, Experiment 1): Yes; Amount of active GLP-1 secreted (relative value to control group as 100), average value ([2]; Table 1, Experiment 1): 226
O=C1N[C@@H](Cc2cnc[nH]2)C(=O)N2CCC[C@@H]12 [compound 37, cyclo-histidyl-proline]					Yes	62	Significant difference (p < 0.05) vs control group, amount of active GLP-1 secreted ([2]; Table 1, Experiment 1): No; Amount of active GLP-1 secreted (relative value to control group as 100), average value ([2]; Table 1, Experiment 1): 231
C[C@@H](O)[C@@H]1NC(=O)[C@@H]2CCCN2C1=O [compound 31, Cyclo(Pro-Thr)]					No	129	Significant difference (p < 0.05) vs control group, amount of active GLP-1 secreted ([2]; Table 1, Experiment 1): Yes; Amount of active GLP-1 secreted (relative value to control group as 100), average value ([2]; Table 1, Experiment 1): 204
O=C(O)C[C@@H]1NC(=O)[C@@H]2CCCN2C1=O [compound 48, Cyclo(Asp-Pro)]					No	110	Significant difference (p < 0.05) vs control group, amount of active GLP-1 secreted ([2]; Table 2, Experiment 2): Yes; Amount of active GLP-1 secreted (relative value to control group as 100), average value ([2]; Table 2, Experiment 2): 199
NC(=O)CCC1NC(=O)C(CC(N)=O)NC1=O (stereo not drawn) [compound 174, Cyclo(Gln-Asn)]			Yes	305			Significant difference (p < 0.05) vs control group, plasma active GLP-1 level ([1]; Table 15, Experiment 10): No; Plasma active GLP-1 level (relative value to control group as 100), average value ([1]; Table 15, Experiment 10): 168
CC(O)C1NC(=O)C(C(C)O)NC1=O (stereo not drawn) [compound 164, cyclo-threonyl-threonine]							Significant difference (p < 0.05) vs control group, plasma active GLP-1 level ([1]; Table 15, Experiment 10): Yes; Plasma active GLP-1 level (relative value to control group as 100), average value ([1]; Table 15, Experiment 10): 282; Significant difference (p < 0.05) vs control group, amount of active GLP-1 secreted ([2]; Table 3, Experiment 3): Yes; Amount of active GLP-1 secreted (relative value to control group as 100), average value ([2]; Table 3, Experiment 3): 162
NC(=O)CC1NC(=O)C(CC(N)=O)NC1=O (stereo not drawn) [compound 173, Cyclo(Asn-Asn)]			Yes	255			Significant difference (p < 0.05) vs control group, plasma active GLP-1 level ([1]; Table 15, Experiment 10): No; Plasma active GLP-1 level (relative value to control group as 100), average value ([1]; Table 15, Experiment 10): 123
NCCCCC1NC(=O)C(Cc2ccccc2)NC1=O (stereo not drawn) [compound 63, cyclo-lysyl-phenylalanine]					Yes	206	Significant difference (p < 0.05) vs control group, amount of active GLP-1 secreted ([2]; Table 2, Experiment 2): Yes; Amount of active GLP-1 secreted (relative value to control group as 100), average value ([2]; Table 2, Experiment 2): 220
CC(C)[C@@H]1NC(=O)[C@H](CCCN=C(N)N)NC1=O [compound 194, cyclo-arginyl-valine]	Yes	237	Yes	498			
CC(C)C[C@@H]1NC(=O)CNC1=O [compound 21, Cyclo(Gly-Leu)]							Significant difference (p < 0.05) vs control group, amount of active GLP-1 secreted ([2]; Table 5, Experiment 5): No; Amount of active GLP-1 secreted (relative value to control group as 100), average value ([2]; Table 5, Experiment 5): 131
C[C@H](O)[C@@H]1NC(=O)[C@H](CC(=O)O)NC1=O [compound 165, Cyclo(Asp-Thr)]							Significant difference (p < 0.05) vs control group, amount of active GLP-1 secreted ([2]; Table 3, Experiment 3): No; Amount of active GLP-1 secreted (relative value to control group as 100), average value ([2]; Table 3, Experiment 3): 140
CSCC[C@@H]1NC(=O)[C@@H]2CCCN2C1=O [compound 18, cyclo-methionyl-proline]					Yes	138	Significant difference (p < 0.05) vs control group, amount of active GLP-1 secreted ([2]; Table 1, Experiment 1): Yes; Amount of active GLP-1 secreted (relative value to control group as 100), average value ([2]; Table 1, Experiment 1): 338
CC(O)C1NC(=O)C(Cc2cnc[nH]2)NC1=O (stereo not drawn) [compound 109, cyclo-threonyl-histidine]							Significant difference (p < 0.05) vs control group, amount of active GLP-1 secreted ([2]; Table 3, Experiment 3): Yes; Amount of active GLP-1 secreted (relative value to control group as 100), average value ([2]; Table 3, Experiment 3): 290
CC1NC(=O)C(CO)NC1=O (stereo not drawn) [compound 25, cyclo-alanyl-serine]					Yes	158	Significant difference (p < 0.05) vs control group, amount of active GLP-1 secreted ([2]; Table 1, Experiment 1): Yes; Amount of active GLP-1 secreted (relative value to control group as 100), average value ([2]; Table 1, Experiment 1): 257
